# Read-outs that look alike come from different tables or passages of the source.
# Assays:
# Type in all cases: biochemical
# [1] = target: wild-type un-phosphorylated FGFR3 protein (Homo sapiens (Human), UniProt P22607); assay: FGFR Enzymatic Assay (FRET peptide phosphorylation), FGFR3; settings: pre-incubated for 4 hours
# FGFR1 = FGFR1 (Homo sapiens (Human), UniProt P11362); assay: FGFR Enzymatic Assay (FRET peptide phosphorylation), FGFR1; settings: pre-incubated for 4 hours
# FGFR2 = FGFR2 (Homo sapiens (Human), UniProt P21802); assay: FGFR Enzymatic Assay (FRET peptide phosphorylation), FGFR2
# Chain of FGFR2 (P21802 22-821): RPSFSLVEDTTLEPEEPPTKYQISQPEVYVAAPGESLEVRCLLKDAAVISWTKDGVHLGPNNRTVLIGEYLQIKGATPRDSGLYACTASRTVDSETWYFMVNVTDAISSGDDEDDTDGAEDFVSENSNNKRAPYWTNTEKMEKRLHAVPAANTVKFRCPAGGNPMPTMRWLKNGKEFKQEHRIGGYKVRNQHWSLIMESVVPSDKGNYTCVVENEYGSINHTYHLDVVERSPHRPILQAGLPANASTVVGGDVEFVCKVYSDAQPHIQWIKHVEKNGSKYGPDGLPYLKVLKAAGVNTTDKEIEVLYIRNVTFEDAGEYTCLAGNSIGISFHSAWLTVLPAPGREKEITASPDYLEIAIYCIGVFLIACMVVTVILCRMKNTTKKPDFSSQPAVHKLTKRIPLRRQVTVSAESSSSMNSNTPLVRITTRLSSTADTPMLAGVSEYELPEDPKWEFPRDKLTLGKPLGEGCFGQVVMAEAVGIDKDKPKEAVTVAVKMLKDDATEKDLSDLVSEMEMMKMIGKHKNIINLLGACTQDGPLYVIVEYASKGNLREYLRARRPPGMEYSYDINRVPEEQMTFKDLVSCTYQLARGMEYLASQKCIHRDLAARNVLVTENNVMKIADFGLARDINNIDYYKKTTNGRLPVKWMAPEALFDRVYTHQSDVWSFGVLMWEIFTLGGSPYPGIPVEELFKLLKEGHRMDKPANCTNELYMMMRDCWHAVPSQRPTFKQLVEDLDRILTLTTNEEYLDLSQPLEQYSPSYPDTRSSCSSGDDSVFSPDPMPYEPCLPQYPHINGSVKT
# Chain of FGFR1 (P11362 22-822): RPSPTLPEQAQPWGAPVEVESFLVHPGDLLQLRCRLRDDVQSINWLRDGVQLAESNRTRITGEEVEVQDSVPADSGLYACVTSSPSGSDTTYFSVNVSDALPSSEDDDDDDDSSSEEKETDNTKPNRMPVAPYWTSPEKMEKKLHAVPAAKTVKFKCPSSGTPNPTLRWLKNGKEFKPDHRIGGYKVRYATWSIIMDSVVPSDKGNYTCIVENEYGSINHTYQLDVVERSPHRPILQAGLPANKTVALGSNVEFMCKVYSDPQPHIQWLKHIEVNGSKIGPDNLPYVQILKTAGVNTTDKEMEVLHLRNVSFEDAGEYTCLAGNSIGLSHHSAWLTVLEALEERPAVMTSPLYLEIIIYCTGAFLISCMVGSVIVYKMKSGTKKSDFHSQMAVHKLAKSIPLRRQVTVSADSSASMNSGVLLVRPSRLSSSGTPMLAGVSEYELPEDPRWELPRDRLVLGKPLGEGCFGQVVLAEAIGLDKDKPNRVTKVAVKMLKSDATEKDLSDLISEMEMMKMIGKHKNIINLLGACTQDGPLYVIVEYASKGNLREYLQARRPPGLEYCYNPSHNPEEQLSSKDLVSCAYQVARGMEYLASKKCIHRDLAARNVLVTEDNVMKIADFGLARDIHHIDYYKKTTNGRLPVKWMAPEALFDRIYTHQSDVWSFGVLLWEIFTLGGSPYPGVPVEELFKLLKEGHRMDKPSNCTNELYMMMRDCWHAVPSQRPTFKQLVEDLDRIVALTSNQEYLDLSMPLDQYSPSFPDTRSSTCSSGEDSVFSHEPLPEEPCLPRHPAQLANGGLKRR
# Chain of wild-type un-phosphorylated FGFR3 protein (P22607 23-806): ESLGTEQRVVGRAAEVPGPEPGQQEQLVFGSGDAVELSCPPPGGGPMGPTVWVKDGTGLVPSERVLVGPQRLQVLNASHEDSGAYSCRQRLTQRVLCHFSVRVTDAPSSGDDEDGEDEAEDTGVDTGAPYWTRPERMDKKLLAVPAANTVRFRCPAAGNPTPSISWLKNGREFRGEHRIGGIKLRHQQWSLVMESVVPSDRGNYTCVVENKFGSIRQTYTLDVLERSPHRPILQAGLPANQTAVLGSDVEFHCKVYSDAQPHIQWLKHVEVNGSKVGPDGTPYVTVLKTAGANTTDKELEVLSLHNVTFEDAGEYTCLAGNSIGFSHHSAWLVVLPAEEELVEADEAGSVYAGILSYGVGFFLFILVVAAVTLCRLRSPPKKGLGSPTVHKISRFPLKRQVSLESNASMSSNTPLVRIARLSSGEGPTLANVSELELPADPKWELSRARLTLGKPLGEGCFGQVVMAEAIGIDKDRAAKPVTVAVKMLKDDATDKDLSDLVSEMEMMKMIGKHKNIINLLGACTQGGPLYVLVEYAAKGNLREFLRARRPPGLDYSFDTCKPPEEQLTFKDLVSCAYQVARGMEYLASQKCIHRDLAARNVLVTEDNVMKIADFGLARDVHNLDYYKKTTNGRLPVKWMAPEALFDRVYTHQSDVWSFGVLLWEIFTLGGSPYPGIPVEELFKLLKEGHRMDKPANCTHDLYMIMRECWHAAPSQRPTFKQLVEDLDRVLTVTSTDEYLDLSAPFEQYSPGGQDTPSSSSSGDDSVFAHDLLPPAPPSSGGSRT
smiles,measurement,setting,value
"CNC(=O)c1cccc(-c2cnn3cc(-c4cnn(C)c4)c(OC4CCOC4)nc23)c1 (racemic) [Example 1, N-Methyl-3-(6-(1-methyl-1H-pyrazol-4-yl)-5-((tetrahydrofuran-3-yl)oxy)pyrazolo[1,5-a]pyrimidin-3-yl)benzamide]",IC50,[1],< 10 nM
same,IC50,FGFR1,30 to 200 nM
same,IC50,FGFR2; pre-incubated for 4 hours,< 10 nM
"CNC(=O)c1ccc(F)c(-c2cnn3cc(-c4cnn(C)c4)c(OC4CCOC4)nc23)c1 (racemic) [Example 2, 4-Fluoro-N-methyl-3-(6-(1-methyl-1H-pyrazol-4-yl)-5-((tetrahydrofuran-3-yl)oxy)pyrazolo[1,5-a]pyrimidin-3-yl)benzamide]",IC50,[1],< 10 nM
same,IC50,FGFR1,30 to 200 nM
same,IC50,FGFR2; pre-incubated for 4 hours,< 10 nM
"CNC(=O)c1cc(C)c(F)c(-c2cnn3cc(-c4cnn(C)c4)c(O[C@H]4CCOC4)nc23)c1 [Example 5, (S)-4-Fluoro-N,3-dimethyl-5-(6-(1-methyl-1H-pyrazol-4-yl)-5-((tetrahydrofuran-3-yl)oxy)pyrazolo[1,5-a]pyrimidin-3-yl)benzamide]",IC50,[1],< 10 nM
same,IC50,FGFR1,< 10 nM
same,IC50,FGFR2; pre-incubated for 4 hours,< 10 nM
"CNC(=O)c1cc(C#N)cc(-c2cnn3cc(-c4cnn(C)c4)c(O[C@H]4CCOC4)nc23)c1 [Example 6, (S)-3-Cyano-N-methyl-5-(6-(1-methyl-1H-pyrazol-4-yl)-5-((tetrahydrofuran-3-yl)oxy)pyrazolo[1,5-a]pyrimidin-3-yl)benzamide]",IC50,[1],< 10 nM
same,IC50,FGFR1,10 to 30 nM
same,IC50,FGFR2; pre-incubated for 4 hours,< 10 nM
"CNC(=O)c1cncc(-c2cnn3cc(-c4cnn(C)c4)c(N[C@H]4CCOC4)nc23)c1 [Example 7, (S)—N-Methyl-5-(6-(1-methyl-1H-pyrazol-4-yl)-5-((tetrahydrofuran-3-yl)amino)pyrazolo[1,5-a]pyrimidin-3-yl)nicotinamide]",IC50,[1],< 10 nM
same,IC50,FGFR1,30 to 200 nM
"CNC(=O)c1cc(C#N)cc(-c2cnn3cc(-c4cnn(C)c4)c(N[C@H]4CCOC4)nc23)c1 [Example 8, (S)-3-Cyano-N-methyl-5-(6-(1-methyl-1H-pyrazol-4-yl)-5-((tetrahydrofuran-3-yl)amino)pyrazolo[1,5-a]pyrimidin-3-yl)benzamide]",IC50,[1],< 10 nM
same,IC50,FGFR1,30 to 200 nM
"CNC(=O)c1cncc(-c2cnn3cc(-c4cnn(C(C)C)c4)c(N[C@H]4CCOC4)nc23)c1 [Example 10, (S)-5-(6-(1-Isopropyl-1H-pyrazol-4-yl)-5-((tetrahydrofuran-3-yl)amino)pyrazolo[1,5-a]pyrimidin-3-yl)-N-methylnicotinamide]",IC50,[1],< 10 nM
same,IC50,FGFR1,30 to 200 nM
"CNC(=O)c1cc(F)c(F)c(-c2cnn3cc(-c4cnn(C5CCN(C)CC5)c4)c(O[C@H]4CCOC4)nc23)c1 [Example 11, (S)-3,4-Difluoro-N-methyl-5-(6-(1-(1-methylpiperidin-4-yl)-1H-pyrazol-4-yl)-5-((tetrahydrofuran-3-yl)oxy)pyrazolo[1,5-a]pyrimidin-3-yl)benzamide]",IC50,[1],< 10 nM
same,IC50,FGFR1,< 10 nM
same,IC50,FGFR2; pre-incubated for 4 hours,< 10 nM
"CNC(=O)c1cc(F)c(F)c(-c2cnn3cc(-c4ccc(N5CCN(C)CC5)cc4)c(O[C@H]4CCOC4)nc23)c1 [Example 12, (S)-3,4-Difluoro-N-methy1-5-(6-(4-(4-methylpiperazin-1-yl)pheny1)-5-((tetrahydrofuran-3-yl)oxy)pyrazolo[1,5-a]pyrimidin-3-yl)benzamide]",IC50,[1],< 10 nM
same,IC50,FGFR1,< 10 nM
same,IC50,FGFR2,< 10 nM
"CNC(=O)c1cc(F)c(F)c(-c2cnn3cc(-c4ccc(N5CCN(C)CC5)nc4)c(O[C@H]4CCOC4)nc23)c1 [Example 13, (S)-3,4-Difluoro-N-methy1-5-(6-(6-(4-methylpiperazin-1-yl)pyridin-3-y1)-5-((tetrahydrofuran-3-yl)oxy)pyrazolo[1,5-a]pyrimidin-3-yl)benzamide]",IC50,[1],< 10 nM
same,IC50,FGFR1,10 to 30 nM
same,IC50,FGFR2; pre-incubated for 4 hours,< 10 nM
"CNC(=O)c1cc(F)c(F)c(-c2cnn3cc(-c4cnn(CCN5CCOCC5)c4)c(O[C@H]4CCOC4)nc23)c1 [Example 14, (S)-3,4-Difluoro-N-methy1-5-(6-(1-(2-morpholinoethyl)-1H-pyrazol-4-y1)-5-((tetrahydrofuran-3-yl)oxy)pyrazolo[1,5-a]pyrimidin-3-yl)benzamide]",IC50,[1],< 10 nM
same,IC50,FGFR1,< 10 nM
same,IC50,FGFR2,< 10 nM
"CNC(=O)c1cc(F)c(F)c(-c2cnn3cc(-c4ccc(C)nc4)c(O[C@H]4CCOC4)nc23)c1 [Example 15, (S)-3,4-Difluoro-N-methyl-5-(6-(6-methylpyridin-3-y1)-5-((tetrahydrofuran-3-yl)oxy)pyrazolo[1,5-a]pyrimidin-3-yl)benzamide]",IC50,[1],< 10 nM
same,IC50,FGFR1,30 to 200 nM
same,IC50,FGFR2,< 10 nM
"CNC(=O)c1cc(C)c(F)c(-c2cnn3cc(-c4cnn(C)c4)c(N[C@H]4CCOC4)nc23)c1 [Example 16, (S)-4-Fluoro-N,3-dimethyl-5-(6-(1-methyl-1H-pyrazol-4-yl)-5-((tetrahydrofuran-3-yl)amino)pyrazolo[1,5-a]pyrimidin-3-yl)benzamide]",IC50,[1],< 10 nM
same,IC50,FGFR1,30 to 200 nM
same,IC50,FGFR2; pre-incubated for 4 hours,< 10 nM
"CNC(=O)c1cc(F)c(F)c(-c2cnn3cc(-c4cnn(C5CN(C)C5)c4)c(O[C@H]4CCOC4)nc23)c1 [Example 17, (S)-3,4-Difluoro-N-methyl-5-(6-(1-(1-methylazetidin-3-yl)-1H-pyrazol-4-yl)-5-((tetrahydrofuran-3-yl)oxy)pyrazolo[1,5-a]pyrimidin-3-yl)benzamide]",IC50,[1],< 10 nM
same,IC50,FGFR1,< 10 nM
same,IC50,FGFR2; pre-incubated for 4 hours,< 10 nM
"CNC(=O)c1cncc(-c2cnn3cc(-c4ccc(N5CCN(C)CC5)cc4)c(O[C@H]4CCOC4)nc23)c1 [Example 18, (S)—N-Methyl-5-(6-(4-(4-methylpiperazin-1-yl)phenyl)-5-((tetrahydrofuran-3-yl)oxy)pyrazolo[1,5-a]pyrimidin-3-yl)nicotinamide]",IC50,[1],< 10 nM
same,IC50,FGFR1,30 to 200 nM
same,IC50,FGFR2; pre-incubated for 4 hours,< 10 nM
"CNC(=O)c1cc(-c2cnn3cc(-c4cnc(NC)c(C)c4)c(O[C@H]4CCOC4)nc23)c(F)c(C(F)F)c1 [Example 24, (S)-3-(Difluoromethyl)-4-fluoro-N-methyl-5-(6-(5-methyl-6-(methylamino)pyridin-3-yl)-5-((tetrahydrofuran-3-yl)oxy)pyrazolo[1,5-a]pyrimidin-3-yl)benzamide]",IC50,FGFR1,≥ 200 nM
same,IC50,FGFR2; pre-incubated for 4 hours,10 to 30 nM
"CNC(=O)c1cc(C#N)cc(-c2cnn3cc(-c4cccnc4)c(O[C@H]4CCOC4)nc23)c1 [Example 27, (S)-3-Cyano-N-methyl-5-(6-(pyridin-3-yl)-5-((tetrahydrofuran-3-yl)oxy)pyrazolo[1,5-a]pyrimidin-3-yl)benzamide]",IC50,FGFR1,≥ 200 nM
same,IC50,FGFR2; pre-incubated for 4 hours,10 to 30 nM
"CNC(=O)c1cc(C#N)cc(-c2cnn3cc(-c4cncc(C)c4)c(O[C@H]4CCOC4)nc23)c1 [Example 29, (S)-3-Cyano-N-methyl-5-(6-(5-methylpyridin-3-yl)-5-((tetrahydrofuran-3-yl)oxy)pyrazolo[1,5-a]pyrimidin-3-yl)benzamide]",IC50,FGFR1,≥ 200 nM
same,IC50,FGFR2; pre-incubated for 4 hours,30 to 200 nM
"CNC(=O)c1cc(C)c(F)c(-c2cnn3cc(-c4ccnnc4)c(N[C@H]4CCOC4)nc23)c1 [Example 44, (S)-4-Fluoro-N,3-dimethyl-5-(6-(pyridazin-4-yl)-5-((tetrahydrofuran-3-yl)amino)pyrazolo[1,5-a]pyrimidin-3-yl)benzamide]",IC50,FGFR1,≥ 200 nM
same,IC50,FGFR2; pre-incubated for 4 hours,10 to 30 nM

# Reference: US11566028B2, “Bicyclic heterocycles as FGFR inhibitors” (Incyte Corporation, priority 2019, dated 2023)
